Measured values reported in patent publication US20210121380A1, “Amino Acid Containing Oral Care Composition for Treating Caries By Reducing Lactic Acid Release in Oral Biofilms” (3M INNOVATIVE PROPERTIES COMPANY, priority 2018, published 2021).
Values belong to the molecule of their own block, whether it stands above or below them.

Assays:
[1] = test system: human saliva derived microcosm biofilm; assay: Lactic acid release of biofilm grown in MCM human derived saliva biofilm system (LDH-NAD-PMS-MTT enzyme assay); format: cell-based, lactic acid producing bacteria (human derived saliva); conditions: for effectiveness for reducing the lactic-acid release of bacteria in a biofilm (in words): reduction by more than 40% vs control considered effective; for activity at 2.7 %: amino acid 2.7 wt. %
Protocol: (§1) A composition was prepared by dissolving the amino acid to be tested in de-ionized water in the given amount.
(§2) Biofilms were grown in a MCM (mucine containing medium plus 1% sucrose) human derived saliva biofilm system.
(§3) A general procedure is summarized below: • 1. Four-hour incubation of bovine sample disks with saliva-mcm (mucine containing medium plus 1% sucrose) at 37° C. • 2. Fresh medium (MCM with different amino acids) for 2-hour incubation at 37° C. • 3. Fresh medium (MCM with different amino acids) for storage over night at 37° C. • 4. Second Day: Fresh medium (MCM with different amino acids) after 22 and 24 hours. • 5. Samples were taken after 26 hours biofilm growth for measurements of lactic acid release and biomass evaluation.
To determine the activity of the grown biofilm, the production of lactic acid in the supernatant (0.75 ml PBS-solution with 5% sucrose per each sample disc) is measured by using the Lactic acid dehydrogenase (LDH)—Nicotinamid-adenin-dinukleotid (NAD)—Phenazine Methosulphate (PMS)—Thiazolyl blue tetrazolium bromide (MTT)—enzyme assay. To guarantee that only freshly produced lactic acid is determined, the samples are washed (in three steps, each lasting 30 sec) in 1.5 ml PBS-solution. The production of lactic acid is evaluated by measuring the lactic acid amount at given points for 30 min. The determination points are: 0 min 15 min and 30 min. For each reading point a sample of 50 μl is taken out of each well. The lactic acid amount at each reading point is determined by using the enzyme assay described above. Lactic acid amount is calculated according to the lactic acid calibration curve.
(§4) In this experiment, the MCM human derived saliva biofilm system was used. The biofilms were grown for 26 hours in continuous presence of sucrose and different amino acids.

[2] = test system: human saliva derived microcosm biofilm; assay: Mass of biofilm (wet biomass) grown in MCM human derived saliva biofilm system; format: cell-based; conditions: read-out: Biomass [% from control]; for activity at 2.7 %: Example 1, amino acid 2.7 wt. %
Protocol: as §1, §2, §3
The mass of biofilm was determined as follows: Filter papers are put into 1.5 ml-reaction tubes and were labelled and weighted. The biofilm, that was grown on the enamel disks is carefully wiped off with filter paper. The filter paper containing the wet biofilms were placed back into the respective reaction tube and re-weighted. The wet biomass is calculated from the difference in weight.
as §4

[3] = Homo sapiens, Example 1, 26 h biofilm growth, continuous presence of sucrose and amino acid, read-out: Lactic Acid Release after 30 min [% from control]
[4] = Homo sapiens, Example 1, amino acid 8.0 wt. %, 26 h biofilm growth, continuous presence of sucrose and amino acid, read-out: Lactic Acid Release after 30 min [% from control]
[5] = 26 h, Example 1, amino acid 8.0 wt. %, 26 h biofilm growth
[6] = Homo sapiens, Example 1, amino acid 4.0 wt. %, 26 h biofilm growth, continuous presence of sucrose and amino acid, read-out: Lactic Acid Release after 30 min [% from control]
[7] = Example 1, amino acid 4.0 wt. %, 26 h biofilm growth

effectiveness for reducing the lactic-acid release of bacteria in a biofilm (in words) [1]: not effective
SMILES: N[C@@H](Cc1ccc(O)cc1)C(=O)O [Tyrosine, reference compound]
activity at 0.0095 % ([1]; Homo sapiens, Example 1, amino acid 0.0095 wt. %, 26 h biofilm growth, continuous presence of sucrose and amino acid, read-out: Lactic Acid Release after 30 min [% from control]): 112% | activity at 0.0095 % ([2]; Example 1, amino acid 0.0095 wt. %, 26 h biofilm growth): 95.3%

effectiveness for reducing the lactic-acid release of bacteria in a biofilm (in words) [1]: useful
SMILES: CSCC[C@H](N)C(=O)O [Methionine]
activity at 4.8 % ([1]; Homo sapiens, Example 1, amino acid 4.8 wt. %, 26 h biofilm growth, continuous presence of sucrose and amino acid, read-out: Lactic Acid Release after 30 min [% from control]): 26.9% | activity at 4.8 % ([2]; 26 h, Example 1, amino acid 4.8 wt. %, 26 h biofilm growth): 84.9%

SMILES: N=C(N)NCCC[C@H](N)C(=O)O [Arginine, reference compound]
effectiveness for reducing the lactic-acid release of bacteria in a biofilm (in words) [1]: not effective | activity at 8 % ([2]; 26 h): 247%

effectiveness for reducing the lactic-acid release of bacteria in a biofilm (in words) [1]: not effective
SMILES: NC(=O)CC[C@H](N)C(=O)O [glutamine, reference compound]

SMILES: NCCCC[C@H](N)C(=O)O [Lysine]
effectiveness for reducing the lactic-acid release of bacteria in a biofilm (in words) [1]: useful | activity at 8 % ([2]; 26 h): 87.8%

effectiveness for reducing the lactic-acid release of bacteria in a biofilm (in words) [1]: useful
SMILES: N[C@@H](CO)C(=O)O [Serine]
activity at 2.7 % [1, 3]: 11.8% | activity at 2.7 % ([2]; 26 h biofilm growth): 84.6%

effectiveness for reducing the lactic-acid release of bacteria in a biofilm (in words) [1]: not effective
SMILES: O=C(O)[C@@H]1CCCN1 [Proline, reference compound]
activity at 8 % [1, 4]: 74.7% | activity at 8 % [2, 5]: 110%

effectiveness for reducing the lactic-acid release of bacteria in a biofilm (in words) [1]: useful
SMILES: CC(C)[C@H](N)C(=O)O [Valine]
activity at 5 % ([1]; Homo sapiens, Example 1, amino acid 5.0 wt. %, 26 h biofilm growth, continuous presence of sucrose and amino acid, read-out: Lactic Acid Release after 30 min [% from control]): 42.1% | activity at 5 % ([2]; Example 1, amino acid 5.0 wt. %, 26 h biofilm growth): 209%

SMILES: N[C@@H](CCC(=O)O)C(=O)O [Glutamic acid, reference compound]
activity at 0.215 % ([1]; Homo sapiens, Example 1, amino acid 0.215 wt. %, 26 h biofilm growth, continuous presence of sucrose and amino acid, read-out: Lactic Acid Release after 30 min [% from control]): 90.4% | activity at 0.215 % ([2]; Example 1, amino acid 0.215 wt. %, 26 h biofilm growth): 80.2%

effectiveness for reducing the lactic-acid release of bacteria in a biofilm (in words) [1]: useful
SMILES: C[C@@H](O)[C@H](N)C(=O)O [Threonine]
activity at 8 % [1, 4]: 54.6% | activity at 8 % ([2]; Example 1, amino acid 8.0 wt. %, 26 h biofilm growth): 190%

SMILES: NC(=O)C[C@H](N)C(=O)O [Asparagine, reference compound]
activity at 0.5 % ([1]; Homo sapiens, Example 1, amino acid 0.5 wt. %, 26 h biofilm growth, continuous presence of sucrose and amino acid, read-out: Lactic Acid Release after 30 min [% from control]): 94.7% | activity at 0.5 % ([2]; Example 1, amino acid 0.5 wt. %, 26 h biofilm growth): 102%

SMILES: C[C@H](N)C(=O)O [Alanine, reference compound]
activity at 4 % [1, 6]: 99.7% | activity at 4 % [2, 7]: 141%

SMILES: N[C@@H](Cc1c[nH]c2ccccc12)C(=O)O [Tryptophan]
effectiveness for reducing the lactic-acid release of bacteria in a biofilm (in words) [1]: useful | activity at 0.25 % ([2]; 26 h): 181%

effectiveness for reducing the lactic-acid release of bacteria in a biofilm (in words) [1]: useful
SMILES: CC[C@H](C)[C@H](N)C(=O)O [Isoleucine]
activity at 4 % [1, 6]: 21.9% | activity at 4 % [2, 7]: 104%

effectiveness for reducing the lactic-acid release of bacteria in a biofilm (in words) [1]: useful
SMILES: NCC(=O)O [Glycine]
activity at 0.5 % ([1]; Homo sapiens, 0.5 h, Example 2, glycine 0.5 wt. %, continuous presence with sucrose, read-out: Lactic Acid Release after 30 min [% from control]): 97.5% | activity at 1 % ([1]; Homo sapiens, 0.5 h, Example 2, glycine 1.0 wt. %, continuous presence with sucrose, read-out: Lactic Acid Release after 30 min [% from control]): 51.6% | activity at 2 % ([1]; Homo sapiens, 0.5 h, Example 2, glycine 2.0 wt. %, continuous presence with sucrose, read-out: Lactic Acid Release after 30 min [% from control]): 32.3% | activity at 4 % ([1]; Homo sapiens, 0.5 h, Example 2, glycine 4.0 wt. %, continuous presence with sucrose, read-out: Lactic Acid Release after 30 min [% from control]): 1.6% | activity at 8 % ([1]; Homo sapiens, 0.5 h, Example 2, glycine 8.0 wt. %, continuous presence with sucrose, read-out: Lactic Acid Release after 30 min [% from control]): 5.6% | activity at 8 % [1, 4]: 5.7% | activity at 8 % [2, 5]: 77.2% | activity at 0.5 % ([2]; 26 h, Example 2, glycine 0.5 wt. %): 143% | activity at 1 % ([2]; 26 h, Example 2, glycine 1.0 wt. %): 146% | activity at 2 % ([2]; 26 h, Example 2, glycine 2.0 wt. %): 96.7% | activity at 4 % ([2]; 26 h, Example 2, glycine 4.0 wt. %): 56.2% | activity at 8 % ([2]; 26 h, Example 2, glycine 8.0 wt. %): 42.2%

effectiveness for reducing the lactic-acid release of bacteria in a biofilm (in words) [1]: not effective
SMILES: N[C@@H](Cc1c[nH]cn1)C(=O)O [Histidine, reference compound]
activity at 3.8 % ([1]; Homo sapiens, Example 1, amino acid 3.8 wt. %, 26 h biofilm growth, continuous presence of sucrose and amino acid, read-out: Lactic Acid Release after 30 min [% from control]): 150% | activity at 3.8 % ([2]; Example 1, amino acid 3.8 wt. %, 26 h biofilm growth): 106%

SMILES: N[C@@H](CS)C(=O)O [Cysteine, reference compound]
activity at 0.625 % ([1]; Homo sapiens, Example 1, amino acid 0.625 wt. %, 26 h biofilm growth, continuous presence of sucrose and amino acid, read-out: Lactic Acid Release after 30 min [% from control]): 85.8% | activity at 0.625 % ([2]; Example 1, amino acid 0.625 wt. %, 26 h biofilm growth): 56.2%

effectiveness for reducing the lactic-acid release of bacteria in a biofilm (in words) [1]: useful
SMILES: CC(C)C[C@H](N)C(=O)O [Leucine]
activity at 2.7 % [1, 3]: 36.7% | activity at 2.7 % ([2]; 26 h biofilm growth): 85.9%

effectiveness for reducing the lactic-acid release of bacteria in a biofilm (in words) [1]: useful
SMILES: N[C@@H](Cc1ccccc1)C(=O)O [Phenylalanine]
activity at 0.5 % ([1]; Homo sapiens, 0.5 h, Example 3, phenylalanine 0.5 wt. %, continuous presence with sucrose, read-out: Lactic Acid Release after 30 min [% from control]): 45.9% | activity at 1 % ([1]; Homo sapiens, 0.5 h, Example 3, phenylalanine 1.0 wt. %, continuous presence with sucrose, read-out: Lactic Acid Release after 30 min [% from control]): 32.1% | activity at 1.5 % ([1]; Homo sapiens, 0.5 h, Example 3, phenylalanine 1.5 wt. %, continuous presence with sucrose, read-out: Lactic Acid Release after 30 min [% from control]): 16.7% | activity at 2 % ([1]; Homo sapiens, 0.5 h, Example 3, phenylalanine 2.0 wt. %, continuous presence with sucrose, read-out: Lactic Acid Release after 30 min [% from control]): 12.1% | activity at 2.5 % ([1]; Homo sapiens, 0.5 h, Example 3, phenylalanine 2.5 wt. %, continuous presence with sucrose, read-out: Lactic Acid Release after 30 min [% from control]): 3.5% | activity at 2.7 % [1, 3]: 8.6% | activity at 0.5 % ([2]; 26 h, Example 3, phenylalanine 0.5 wt. %): 181% | activity at 1 % ([2]; 26 h, Example 3, phenylalanine 1.0 wt. %): 124% | activity at 1.5 % ([2]; 26 h, Example 3, phenylalanine 1.5 wt. %): 92.7% | activity at 2 % ([2]; 26 h, Example 3, phenylalanine 2.0 wt. %): 96.5% | activity at 2.5 % ([2]; 26 h, Example 3, phenylalanine 2.5 wt. %): 66.9% | activity at 2.7 % ([2]; 26 h biofilm growth): 136%

effectiveness for reducing the lactic-acid release of bacteria in a biofilm (in words) [1]: not effective
SMILES: N[C@@H](CC(=O)O)C(=O)O [Aspartic acid, reference compound]
activity at 0.1125 % ([1]; Homo sapiens, Example 1, amino acid 0.1125 wt. %, 26 h biofilm growth, continuous presence of sucrose and amino acid, read-out: Lactic Acid Release after 30 min [% from control]): 101% | activity at 0.1125 % ([2]; Example 1, amino acid 0.1125 wt. %, 26 h biofilm growth): 82.1%
